Like-named read-outs stand apart in the source and are kept apart here.
What was measured:
J774 macrophages = experiment: Nitrite production by immunostimulated J774 macrophages (endotoxin 24 h, Griess); assay type: cell-based, mouse; settings: Mus musculus, read-out: EC50 for the inhibition of nitrite production by stimulated J774 macrophages
Method: This example illustrates the effect of selected mercapto derivatives on endotoxin-induced nitrite formation in J774.2 macrophages and on IL-1 gamma-interferon induced nitrite formation in cultured rat arctic smooth muscle cells. J774 macrophage cell lines were obtained from the American Type Culture Collection (ATCC) and were grown using standard methods in Dulbecco's Modified Eagle Medium (DMEM) supplemented with 10% fetal bovine serum, glutamine, penicillin (10,000 U/l) and streptomycin (10,000 U/l). Rat aortic smooth muscle cells (RASM) from Wistar rats were isolated by enzymatic dissociation using standard methods. The cells were positively identified as smooth muscle by indirect immunofluorescent staining for a-actin, using mouse anti-α-actin antibody and anti-mouse IgG fluorescein isothiocyanate (FITC) conjugate. RASM cells were grown in T-75 tissue culture flasks in 50% F12 nutrient medium and 50% Dulbecco's Modified Eagle Medium supplemented with 10% fetal bovine serum, glutamine, penicillin (10,000 U/l) and streptomycin (10,000 U/l). Cells were grown in 96-well plates for measure of nitrite production and cell viability. J774 macrophages were treated with endotoxin (10 μg/ml) for 24 hours; smooth muscle cells were treated with IL-1 (100 U/ml) and gamma-interferon (50 U/ml) for 48 hours.
Concentration of nitrite, the degradation product of NO in the culture medium, was determined by mixing equal volumes of medium with the Griess reagent (1% sulfanilamide/0.1% naphthylethylenediamine dihydrochloride/2.5% H3 PO4). The mixture was incubated for 10 minutes at room temperature to form the chromophore, then optical densities (OD) were determined at 550 nm (OD550). NaNO2 was used as the standard. Spectrophotometric measurements were performed in a dual-wavelength spectrophotometer.

ecNOS = molecular target: T1, ecNOS (Bos taurus, UniProt P29473); experiment: ecNOS activity from intimal scrapings of fresh bovine aortae (conversion of [3H]-L-arginine to [3H]-L-citrulline); assay type: biochemical
T1 construct: the intimal surface of fresh bovine aortae was scraped and homogenized; from tissue; host or cells: homogenate of intimal scrapings of fresh bovine aortae
Method: The intimal surface of fresh bovine aortae was scraped in the presence of homogenation buffer composed of 50 mM Tris-HCl, 0.1 mM ethylenediamine tetraacetic acid (EDTA) and 0.1 mM ethyleneglycol bis (beta-aminoethyl ether) (EGTA). Conversion of [^3 H]-L-arginine to [^3 H]-L-citrulline was measured in the homogenates as follows: cell homogenate (50 μl) was incubated in the presence of [^3 H]-L-arginine (10 μM, 5 kBq/tube), NADPH (2 mM), calmodulin (30 nM), tetrahydrobiopterin (5 μM) and calcium (2 mM) for 20 minutes at 37° C. in N-2-hydroxethyl piperazine-N-2-ethane sulfonic acid (HEPES) buffer (pH 7.5). Reactions were stopped by dilution with 1 ml of ice cold HEPES buffer (pH 5.5) containing EGTA (2 mM) and EDTA (2 mM). Reaction mixtures were applied to Dowex 50W (Na^+ form) columns and the eluted [^3 H]-L-citrulline activity was measured by scintillation counting. bNOS activity was measured using similar methods in homogenates of whole rat brains.
For a preparation rich in ecNOS, the intimal surface of fresh bovine aortae was scraped and homogenized. The homogenization buffer was composed of 50 mM tris-HCL, 0.1 mM EDTA, 0.1 mM EGTA and 1 mM phenylmethylsulfonyl chloride (pH 7.4). Cell suspensions were homogenized in the homogenization buffer on ice using a Tissue Tearor 985-370 homogenizer (BioSpec Products, Racine, Wis.). Conversion of [^3 H]-L-arginine to [^3 H]-L-citrulline was measured in the homogenates as described in Example 3 above.

bNOS = molecular target: T2, bNOS (Rattus norvegicus, UniProt P29476); experiment: bNOS activity in homogenates of whole rat brains; assay type: biochemical; settings: bNOS (Table 2); read-out: EC50 for inhibition of bNOS activity in tissue homogenates
T2 construct: bNOS activity was measured using similar methods in homogenates of whole rat brains; from tissue; host or cells: homogenate of whole rat brains

[1] = tested on: constitutive and inducible NOS isoforms; settings: background literature; cited from earlier work
iNOS [2] = molecular target: T3, iNOS (Rattus norvegicus, UniProt Q06518); experiment: Inhibition of iNOS activity in tissue homogenates (Table 2); assay type: biochemical; set-up: bNOS in tissue homogenates; from tissue; host or cells: tissue homogenate; settings: iNOS (Table 2)
[3] = Mean arterial blood pressure in normal anesthetized rats; assay type: in vivo, Male Wistar rats; settings: i.v. or i.p.
J774.2 macrophages = experiment: Nitrite production in immunostimulated J774.2 macrophages (E.coli LPS + murine gamma-interferon, 24 h); assay type: cell-based, mouse; settings: Mus musculus
Method: This example illustrates the effect of selected mercapto and seleno derivatives on nitrite production in J774.2 immunostimulated macrophages. The J774.2 mouse macrophage cell line was obtained from the ATCC and was cultured in DMEM with 4×10^-3 M L-glutamine and 10% fetal calf serum. Cells were cultured in 96-well plates with 200 μl culture medium until they reached 60-80% confluence. To induce INOS, fresh culture medium containing E.coli LPS (10 μg/ml) and murine gamma-interferon (IFN)(50 U/ml) was added. Nitrite accumulation in the cell culture medium in the absence or presence of various inhibitors was measured after 24 hours. Nitrite production, an indicator of NO synthesis, was measured in the supernatant of J774.2 macrophages by the Greiss reaction as described in Example 1 above.
This Example illustrates the effect of selected seleno derivatives on endotoxin-induced nitrite formation in J774.2 macrophages. The mouse macrophage cell line J774.2 obtained from the ATCC was cultured in DMEM with 4×10^-3 M L-glutamine and 10% fetal calf serum. Cells were cultured in 96-well plates with 200 μl culture medium until they reached 60-80% confluence. To induce iNOS, fresh culture medium containing E.coli LPS (10 μg/ml) and murine gamma-interferon (IFN)(50 U/ml) were added. Nitrite accumulation in the cell culture medium in the absence or presence of various inhibitors was measured after 24 hours. There was no detectable nitrite production by the J774.2 macrophages in the absence of immunostimulation. However, in the presence of IFN and LPS, nitrite concentration of the medium increased to 17±2 μM in the absence of inhibitor.

iNOS [4] = molecular target: T3, iNOS; experiment: iNOS activity in lung homogenates from rats treated with bacterial endotoxin; assay type: biochemical; set-up: Lungs were obtained from rats which had been treated with bacterial endotoxin; from tissue; host or cells: lung homogenate from endotoxin-treated rats
Method: This Example illustrates the effect of selected mercapto and seleno derivatives on iNOS activity in lung homogenates prepared from rats treated with endotoxin. […] The homogenization buffer was composed of 50 mM tris-HCL, 0.1 mM EDTA, 0.1 mM EGTA and 1 mM phenylmethylsulfonyl chloride (pH 7.4). Cell suspensions were homogenized in the homogenization buffer on ice using a Tissue Tearor 985-370 homogenizer (BioSpec Products, Racine, Wis.).

T2 sequence (P29476 whole entry): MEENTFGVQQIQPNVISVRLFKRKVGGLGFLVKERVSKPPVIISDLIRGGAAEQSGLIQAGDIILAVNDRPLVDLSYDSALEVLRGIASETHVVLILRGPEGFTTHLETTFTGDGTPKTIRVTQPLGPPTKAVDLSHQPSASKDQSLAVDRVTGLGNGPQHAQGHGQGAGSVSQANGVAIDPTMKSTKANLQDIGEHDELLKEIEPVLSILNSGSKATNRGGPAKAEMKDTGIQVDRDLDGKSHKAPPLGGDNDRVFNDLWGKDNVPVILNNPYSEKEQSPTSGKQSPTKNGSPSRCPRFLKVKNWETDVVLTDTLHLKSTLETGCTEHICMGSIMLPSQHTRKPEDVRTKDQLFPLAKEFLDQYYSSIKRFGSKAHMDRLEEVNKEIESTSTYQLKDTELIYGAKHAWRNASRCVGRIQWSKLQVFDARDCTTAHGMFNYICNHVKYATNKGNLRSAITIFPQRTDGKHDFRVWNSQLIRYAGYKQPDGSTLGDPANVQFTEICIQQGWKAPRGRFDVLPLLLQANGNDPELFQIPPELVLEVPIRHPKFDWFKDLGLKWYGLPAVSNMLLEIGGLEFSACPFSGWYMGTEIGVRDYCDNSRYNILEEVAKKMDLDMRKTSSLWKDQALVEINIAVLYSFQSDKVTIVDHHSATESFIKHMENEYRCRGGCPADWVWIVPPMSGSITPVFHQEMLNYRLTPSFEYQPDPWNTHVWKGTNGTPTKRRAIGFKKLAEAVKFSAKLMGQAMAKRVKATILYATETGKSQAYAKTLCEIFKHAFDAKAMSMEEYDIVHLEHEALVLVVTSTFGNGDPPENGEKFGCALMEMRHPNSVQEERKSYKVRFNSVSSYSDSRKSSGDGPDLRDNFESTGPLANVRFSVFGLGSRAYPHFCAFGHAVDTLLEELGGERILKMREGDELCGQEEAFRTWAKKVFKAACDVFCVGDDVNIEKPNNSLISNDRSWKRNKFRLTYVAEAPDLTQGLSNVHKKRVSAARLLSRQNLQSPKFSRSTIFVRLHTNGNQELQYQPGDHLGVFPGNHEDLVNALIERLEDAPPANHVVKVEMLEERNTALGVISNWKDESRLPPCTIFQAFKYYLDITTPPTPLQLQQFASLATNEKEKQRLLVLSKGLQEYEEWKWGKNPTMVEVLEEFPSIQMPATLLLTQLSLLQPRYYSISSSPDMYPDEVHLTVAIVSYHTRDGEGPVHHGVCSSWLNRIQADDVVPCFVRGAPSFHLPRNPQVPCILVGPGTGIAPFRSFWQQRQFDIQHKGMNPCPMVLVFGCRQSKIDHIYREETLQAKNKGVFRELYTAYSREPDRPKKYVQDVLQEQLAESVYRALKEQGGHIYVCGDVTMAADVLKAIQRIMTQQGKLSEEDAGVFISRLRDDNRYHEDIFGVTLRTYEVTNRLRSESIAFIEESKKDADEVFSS

EC50 (J774.2 macrophages; J774.2, IFN and LPS, Example 9, read-out: EC50, inhibition of nitrite production) | SMILES | EC50 (J774 macrophages; J774, 24 h) | EC50 (ecNOS; ecNOS (Table 2), read-out: EC50 for inhibition of ecNOS activity in tissue homogenates) | EC50 (bNOS) | NOS inhibition / isoform selectivity, in words [1] | EC50 (iNOS [2]) | EC50 (ecNOS; n=6, bovine aorta, read-out: EC50, dose dependent inhibition of ecNOS activity) | EC50 (J774 macrophages; J774, endotoxin 10 μg/ml, 24 h (Table 1)) | mean arterial blood pressure (MAP) response [3] | activity at 1000 µM (J774.2 macrophages; J774.2, 24 h, inhibitor concentration -3.000 log M (Table 3), read-out: NITRITE (% OF CONTROL)) | activity at 100 µM (J774.2 macrophages; J774.2, 24 h, inhibitor concentration -4.000 log M (Table 3), read-out: NITRITE (% OF CONTROL)) | activity at 10 µM (J774.2 macrophages; J774.2, 24 h, inhibitor concentration -5.000 log M (Table 3), read-out: NITRITE (% OF CONTROL)) | activity at 1 µM (J774.2 macrophages; J774.2, 24 h, inhibitor concentration -6.000 log M (Table 3), read-out: NITRITE (% OF CONTROL)) | iNOS ACTIVITY (%) (iNOS [4]; inhibitor concentration -3.000 log M) | iNOS ACTIVITY (%) (iNOS [4]; inhibitor concentration -4.000 log M) | iNOS ACTIVITY (%) (iNOS [4]; inhibitor concentration -5.000 log M) | iNOS ACTIVITY (%) (iNOS [4]; inhibitor concentration -6.000 log M) | iNOS ACTIVITY (%) (iNOS [4]; inhibitor concentration -7.000 log M) | inhibition of iNOS activity, in words (iNOS [4]; lung homogenates, rats treated with endotoxin)
– | N=C(N)NN [Aminoguanidine, reference compound] | 120 µM | 2600 µM | 220 µM | selectively inhibit the inducible isoform of nitric oxide synthase | 80 µM | – | – | – | – | – | – | – | – | – | – | – | – | –
– | COC(=O)[C@@H](N)CCCNC(=N)N[N+](=O)[O-] [L-NAME, NG-nitro-L-arginine methyl ester, reference compound] | – | – | – | inhibit both the constitutive and the inducible NOS isoforms to a similar extent | – | 2 µM | – | – | – | – | – | – | – | – | – | – | – | –
90 µM | CNC(=N)NCCC[C@H](N)C(=O)O [L-NMA, N^G -Methyl-L-arginine, reference compound] | – | – | – | – | 17 µM | – | 159 µM | pronounced and dose-dependent pressor response | 12.6% | 45% | 73.5% | 95% | 18.000% | 40.00% | 100.000% | 100.000% | 100.000% | somewhat similar in their inhibitory effect on INOS activity
